Experimental data published in patent US20240010635A1, “NOVEL INDIRUBIN DERIVATIVES HAVING HETEROBICYCLIC MOIETIES AND THE USE THEREOF” (priority 2022, published 2024).
Changes are numbered by the printed parent chain.

Key:
Type in all cases: biochemical
FLT3 WT = molecular target: T1, FLT3 WT (Homo sapiens, UniProt P36888); experiment: ADP-Glo kinase assay, FLT3 WT; conditions: recombinant FLT3, ADP-Glo, 120 min room temperature; read-out: Enzyme activity (IC50, nM) FLT3 WT
T1 construct: Recombinant proteins containing the FLT3 and FLT3 (D835Y) domains were purchased from Promega; purchased Promega V4064
T1 sequence (P36888 610-943 limits assumed): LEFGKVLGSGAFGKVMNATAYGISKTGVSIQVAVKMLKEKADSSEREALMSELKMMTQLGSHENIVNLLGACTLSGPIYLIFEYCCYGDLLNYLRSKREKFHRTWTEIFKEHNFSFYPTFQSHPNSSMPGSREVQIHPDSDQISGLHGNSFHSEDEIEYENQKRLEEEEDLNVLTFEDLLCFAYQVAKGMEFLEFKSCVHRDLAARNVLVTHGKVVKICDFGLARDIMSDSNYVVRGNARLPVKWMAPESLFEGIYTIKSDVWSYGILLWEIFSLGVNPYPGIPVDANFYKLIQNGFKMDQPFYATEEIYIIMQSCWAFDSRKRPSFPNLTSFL
Description: (§1) FLT3 activity inhibition was measured by ADP-Glo kinase assay (Promega, cat #V9101). ADP-Glo kinase analysis method is an emission ADP detect method which measures kinase activity by quantification of ADP amount produced during kinase reaction and provides uniform high-throughput screening method.
(§2) Analysis performed in two steps. First, after kinase reaction, ADP-Glo™ reagent of equal volume was added to finish kinase reaction, and then the rest ATP was exhausted. Second, Kinase Detection Reagent was added to convert ADP to ATP and newly synthesized ATP was measured by luciferase/luciferin reaction at the same time. Generated light was measured by using luminometer. The measured luminescence amount can be applied to the ATP→ADP standard conversion curve to confirm the correlation with the ADP concentration.
(§3) Recombinant proteins containing the FLT3 and FLT3 (D835Y) domains were purchased from Promega (cat #V4064, cat #V4514), respectively. According to the manufacturer's instructions, optimal enzyme, ATP, and substrate concentration were established using the ADP-Glo™ Kinase Assay (Promega, USA). Kinase reaction buffer 5× (200 mM Tris-HCl, pH 7.5, 100 mM MgCl2, 0.5 mg/ml BSA) was diluted and used, and the diluted compound of the present invention (5×, 1 μl), FLT3 enzyme or FLT3/D835Y enzyme (2.5×, 2 μl) and substrate/ATP mixture (2.5×, 2 μl), were mixed sequentially and reacted at room temperature for 120 minutes. Then, ADP-Glo™ Reagent (5 μl) was added and reacted for 40 min at room temperature. Finally, after adding a reagent for detection (Kinase Detection Reagent, 10 μl), reacting at room temperature for 30 min, and then phosphorylation of substrate peptide was measured by measuring luciferase signal (Integration time 0.5-1 second) using SpectraMax ID5 reader (Molecular Devices LLC., San Jose, CA, USA). IC50 was calculated by nonlinear regression using Prism version 5.01 (GrapghPad).

FLT3 D835Y = molecular target: T2, FLT3 D835Y (Homo sapiens, UniProt P36888, D835Y); experiment: ADP-Glo kinase assay, FLT3 D835Y; conditions: recombinant FLT3 (D835Y), 120 min room temperature, read-out: Enzyme activity (IC50, nM) FLT3 D835Y
T2 construct: Recombinant proteins containing the FLT3 and FLT3 (D835Y) domains were purchased from Promega; purchased Promega V4514
T2 sequence (P36888 610-943 D835Y limits assumed): T1 sequence (P36888 610-943 limits assumed) with D226Y
Description: as §1, §2, §3

RET WT = molecular target: T3, RET WT (Homo sapiens, UniProt P07949); experiment: ADP-Glo kinase assay, RET WT; conditions: recombinant RET wt, 120 min room temperature, read-out: Enzyme activity (IC50, nM) RET WT
T3 construct: Recombinant proteins containing RET wt, RET (M918T) and RET (V804L) domains were purchased from Promega; purchased Promega V8061
T3 sequence (P07949 724-1016 limits assumed): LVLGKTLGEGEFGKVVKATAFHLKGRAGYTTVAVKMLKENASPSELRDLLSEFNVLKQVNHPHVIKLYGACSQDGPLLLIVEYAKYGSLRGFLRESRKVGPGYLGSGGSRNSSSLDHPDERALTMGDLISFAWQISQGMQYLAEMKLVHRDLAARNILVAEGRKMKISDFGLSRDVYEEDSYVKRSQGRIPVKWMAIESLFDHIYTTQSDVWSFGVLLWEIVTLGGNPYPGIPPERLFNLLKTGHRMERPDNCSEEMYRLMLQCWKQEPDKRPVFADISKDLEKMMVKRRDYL
Description: as §2
(§4) Recombinant proteins containing RET wt, RET (M918T) and RET (V804L) domains were purchased from Promega (cat #V8061, cat #VA7274, cat #V4473), respectively. According to the manufacturer's instructions, optimal enzyme, ATP, and substrate concentration were established using ADP-Glo™ Kinase Assay (Promega, USA). […] Then, ADP-Glo™ Reagent (5 μl) was added and reacted at room temperature for further 40 min. Lastly, Kinase Detection Reagent (10 μl) was added and reacted for 30 min more at room temperature, and then phosphorylation of substrate peptide was measured by measuring luciferase signal (Integration time 0.5-1 second) using SpectraMax ID5 reader (Molecular Devices LLC., San Jose, CA, USA). IC50 was calculated by nonlinear regression using Prism version 5.01 (GrapghPad).

RET M918T = molecular target: T4, RET M918T (Homo sapiens, UniProt P07949, M918T); experiment: ADP-Glo kinase assay, RET M918T; conditions: recombinant RET (M918T), 120 min room temperature, read-out: Enzyme activity (IC50, nM) RET M918T
T4 construct: Recombinant proteins containing RET wt, RET (M918T) and RET (V804L) domains were purchased from Promega; purchased Promega VA7274
T4 sequence (P07949 724-1016 M918T limits assumed): T3 sequence (P07949 724-1016 limits assumed) with M195T
Description: as §2, §4

Row | Compound | IC50 (FLT3 WT) [nM] | IC50 (FLT3 D835Y) [nM] | IC50 (RET WT) [nM] | IC50 (RET M918T) [nM]
1 | O=C(CO/N=C1/C(=C2/C(=O)Nc3ccc(F)cc32)Nc2ccccc21)N[C@H]1[C@@H]2CNC[C@@H]21 [Example 19, N-((1R,5S,6s)-3-azabicyclo[3.1.0]hexan-6-yl)-2-(((E)-((Z)-5′-fluoro-2′-oxo-[2,3′-biindolinylidene]-3-ylidene)amino)oxy)acetamide] | 3.13 | 0.511 | 1.05 | 1.39
2 | O=C1Nc2ccc(Cl)cc2/C1=C1/Nc2ccccc2/C1=N\OCCN1C[C@H]2C[C@@H]1CN2 [Example 11, (2Z,3E)-3-((2-((1R,4R)-2,5-diazabicyclo[2.2.1]heptan-2-yl)ethoxy)imino)-5′-chloro-[2,3′-biindolinylidene]-2′-one] | 4.57 | 0.553 | 1.72 | 1.27
3 | O=C1Nc2ccccc2/C1=C1/Nc2ccccc2/C1=N\OCC(=O)N1CC2(CNC2)C1 [Example 15, (2Z,3E)-3-((2-oxo-2-(2,6-diazaspiro[3.3]heptan-2-yl)ethoxy)imino)-[2,3′-biindolinylidene]-2′-one] | 3.41 | 0.798 | 0.664 | 1.08
4 | O=C1Nc2ccccc2/C1=C1/Nc2ccccc2/C1=N\OCCN1CC2(CNC2)C1 [Example 1, (2Z,3E)-3-((2-(2,6-diazaspiro[3.3]heptan-2-yl)ethoxy)imino)-[2,3′-biindolinylidene]-2′-one] | 1.42 | 0.329 | 1.09 | 0.449
